Like-named read-outs stand apart in the source and are kept apart here.
What was measured:
[1] = tested on: human promonocytic lymphoma cells (U937); assay: Microculture indicator system (MIS), MTT growth inhibition assay with bivariate serial dilutions; type: cell-based
Outline: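 U937 human promonocytic lymphoma cells were tested in flat-bottom 96-well plates. Two agents were each diluted two-fold by serial mixing, then combined into bivariate dilution series before about 1×10^5 cells per well were added in RPMI 1640 with 10% Nurserum and antibiotics, 100 μl per well. Plates were incubated at 37° C. Thirty μl of 0.5% MTT was then added for 3 hr. Formazan was dissolved overnight with 120 μl of 10 % SDS/0.01 N HCl and absorbance was read at 570 nm against a cell-free blank.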

U937 cells = assay: Flow cytometric cell cycle analysis (propidium iodide); type: cell-based, human; conditions: U937
Description: Flow cytometric analyses were performed with a Coulter Epics System (purchased from Coulter Corp, Hialeah, Fla.). Cells were disrupted in buffer with 0.1% Triton-X 100 (or 0.6 % NP-40), so that the nuclei could be stained with 0.05% propidium iodide (PI). See Shapiro N M, Practical Flow Cytometry, Man R Liss, NY (1988); Nicoletti I et al., J Immunol Methods 139:271-9 (1991). Analyses of 10,000 nuclei were performed with graduated concentrations of dThd at serial time points. Histograms of PI fluorescent emissions at 675±10 nm were used to discriminate cell cycle fractions of the target population. The proportion of cells in each phase of the cell cycle is represented by stack bars above the X-axis as a fraction of those cells with intact DNA structure. The fraction of cells with depleted DNA in each sample is represented below the X-axis as a percentage of the total cell number. Cells with depleted DNA are presumed apoptotic. Crompton S T et. al. Biophys. Biochem. Res. Comm. 183:532-537 (1992). Each stack bar in FIG. 5 represents the cell cycle distribution of a population sample of >10,000 cells, analyzed for each indicated dThd concentration at indicated treatment times.
Flow cytometric analyses were performed as in Example 2. The results are shown in plot A of FIG. 5 from Example 2.
The U937 cells were exposed to a range of concentrations below the IC40 and sampled for flow cytometry at intervals of 8, 16, and 24 hours. Flow cytometric analysis was performed as described in Example 2.

[2] = Homo sapiens, U-937, 4 h, U937, dThd […] 4 H, Cisplatin 0, read-out: MTT % inhibition, dThd only

Cc1cn([C@H]2C[C@H](O)[C@@H](CO)O2)c(=O)[nH]c1=O [dThd, deoxythymidine]
inhibition at 10 µM ([1]; Homo sapiens, U-937, 4 h, U937, dThd 0.01 mM 4 H, no Cisplatin, read-out: MTT % inhibition, dThd only): 7% | inhibition at 10 µM ([1]; Homo sapiens, U-937, 4 h, U937, dThd 0.01 mM (column 8, lowest) 4 H, no Cisplatin, read-out: MTT % inhibition, dThd only): 4% | inhibition at 20 µM ([1]; Homo sapiens, U-937, 4 h, U937, dThd 0.02 mM 4 H, no Cisplatin, read-out: MTT % inhibition, dThd only): 12% | inhibition at 50 µM ([1]; Homo sapiens, U-937, 4 h, U937, dThd 0.05 mM 4 H, no Cisplatin, read-out: MTT % inhibition, dThd only): 19% | inhibition at 90 µM ([1]; Homo sapiens, U-937, 4 h, U937, dThd 0.09 mM 4 H, Cisplatin 0, read-out: MTT % inhibition, dThd only): 22% | inhibition at 3000 µM ([1]; Homo sapiens, U-937, 4 h, U937, dThd 3.00 mM 4 H, Cisplatin 0, read-out: MTT % inhibition, dThd only): 56% | inhibition at 190 µM [1, 2]: 29% | inhibition at 380 µM [1, 2]: 32% | inhibition at 760 µM [1, 2]: 40% | inhibition at 1500 µM [1, 2]: 48% | inhibition at 10 µM ([1]; Homo sapiens, U-937, U937, dThd 0.01 mM (c20) for 0 H (added with STSP), STSP for 18 H, total 18 H, STSP nM: 100,50,25,12.6,6.25,3.13, r28 dThd alone, read-out: Growth inhibition (MTT), dThd for 0 H, dThd 0.01 mM (ninth dilution)): 4% | inhibition at 10 µM ([1]; Homo sapiens, U-937, U937, dThd 0.01 mM (c20) for 4 H, STSP for 14 H, total 18 H, STSP nM: 100,50,25,12.5,6.25,3.125, r14 dThd alone, read-out: Growth inhibition (MTT), dThd 0.01 mM (ninth dilution)): -2% | inhibition at 10 µM ([1]; Homo sapiens, U-937, U937, dThd 0.01 mM (c22, last dilution) for 0 H (added with STSP), STSP for 18 H, total 18 H, STSP nM: 100,50,25,12.6,6.25,3.13, r28 dThd alone, read-out: Growth inhibition (MTT), dThd for 0 H, dThd 0.01 mM (tenth, last dilution)): 3% | inhibition at 10 µM ([1]; Homo sapiens, U-937, U937, dThd 0.01 mM (c22, last two-fold dilution) for 4 H, STSP for 14 H, total 18 H, STSP nM: 100,50,25,12.5,6.25,3.125, r14 dThd alone, read-out: Growth inhibition (MTT), dThd 0.01 mM (tenth, last dilution)): -7% | inhibition at 20 µM ([1]; Homo sapiens, U-937, U937, dThd 0.02 mM for 0 H (added with STSP), STSP for 18 H, total 18 H, STSP nM: 100,50,25,12.6,6.25,3.13, r28 dThd alone, read-out: Growth inhibition (MTT), dThd for 0 H, dThd 0.02 mM): 6% | inhibition at 20 µM ([1]; Homo sapiens, U-937, U937, dThd 0.02 mM for 4 H, STSP for 14 H, total 18 H, STSP nM: 100,50,25,12.5,6.25,3.125, r14 dThd alone, read-out: Growth inhibition (MTT), dThd 0.02 mM): 11% | inhibition at 50 µM ([1]; Homo sapiens, U-937, U937, dThd 0.05 mM for 4 H, STSP for 14 H, total 18 H, STSP nM: 100,50,25,12.5,6.25,3.125, r14 dThd alone, read-out: Growth inhibition (MTT), dThd 0.05 mM): 10% | inhibition at 60 µM ([1]; Homo sapiens, U-937, U937, dThd 0.06 mM for 0 H (added with STSP), STSP for 18 H, total 18 H, STSP nM: 100,50,25,12.6,6.25,3.13, r28 dThd alone, read-out: Growth inhibition (MTT), dThd for 0 H, dThd 0.06 mM): 10% | inhibition at 90 µM ([1]; Homo sapiens, U-937, U937, dThd 0.09 mM for 0 H (added with STSP), STSP for 18 H, total 18 H, STSP nM: 100,50,25,12.6,6.25,3.13, r28 dThd alone, read-out: Growth inhibition (MTT), dThd for 0 H, dThd 0.09 mM): 12% | inhibition at 90 µM ([1]; Homo sapiens, U-937, U937, dThd 0.09 mM for 4 H, STSP for 14 H, total 18 H, STSP nM: 100,50,25,12.5,6.25,3.125, r14 dThd alone, read-out: Growth inhibition (MTT), dThd 0.09 mM): 14% | inhibition at 3000 µM ([1]; Homo sapiens, U-937, U937, dThd 3.00 mM for 0 H (added with STSP), STSP for 18 H, total 18 H, STSP nM: 100,50,25,12.6,6.25,3.13, r28 dThd alone, read-out: Growth inhibition (MTT), dThd for 0 H, dThd 3.00 mM): 38% | inhibition at 3000 µM ([1]; Homo sapiens, U-937, U937, dThd 3.00 mM for 4 H, STSP for 14 H, total 18 H, STSP nM: 100,50,25,12.5,6.25,3.125, r14 dThd alone, read-out: Growth inhibition (MTT), dThd 3.00 mM): 50% | inhibition at 190 µM ([1]; Homo sapiens, U-937, read-out: Growth inhibition (MTT), dThd […], U937, dThd […] for 4 H, STSP for 14 H, total 18 H, STSP nM: 100,50,25,12.5,6.25,3.125, r14 dThd alone, read-out: Growth inhibition (MTT), dThd 0.19 mM): 18% | inhibition at 380 µM ([1]; Homo sapiens, U-937, read-out: Growth inhibition (MTT), dThd […], U937, dThd […] for 4 H, STSP for 14 H, total 18 H, STSP nM: 100,50,25,12.5,6.25,3.125, r14 dThd alone, read-out: Growth inhibition (MTT), dThd 0.38 mM): 23% | inhibition at 750 µM ([1]; Homo sapiens, U-937, read-out: Growth inhibition (MTT), dThd […], U937, dThd […] for 4 H, STSP for 14 H, total 18 H, STSP nM: 100,50,25,12.5,6.25,3.125, r14 dThd alone, read-out: Growth inhibition (MTT), dThd 0.75 mM): 34% | inhibition at 1500 µM ([1]; Homo sapiens, U-937, read-out: Growth inhibition (MTT), dThd […], U937, dThd […] for 4 H, STSP for 14 H, total 18 H, STSP nM: 100,50,25,12.5,6.25,3.125, r14 dThd alone, read-out: Growth inhibition (MTT), dThd 1.5 mM): 41% | inhibition at 190 µM ([1]; Homo sapiens, U-937, read-out: Growth inhibition (MTT), dThd for 0 H, dThd […], U937, dThd […] for 0 H (added with STSP), STSP for 18 H, total 18 H, STSP nM: 100,50,25,12.6,6.25,3.13, r28 dThd alone, read-out: Growth inhibition (MTT), dThd for 0 H, dThd 0.19 mM): 15% | inhibition at 380 µM ([1]; Homo sapiens, U-937, read-out: Growth inhibition (MTT), dThd for 0 H, dThd […], U937, dThd […] for 0 H (added with STSP), STSP for 18 H, total 18 H, STSP nM: 100,50,25,12.6,6.25,3.13, r28 dThd alone, read-out: Growth inhibition (MTT), dThd for 0 H, dThd 0.38 mM): 20% | inhibition at 760 µM ([1]; Homo sapiens, U-937, read-out: Growth inhibition (MTT), dThd for 0 H, dThd […], U937, dThd […] for 0 H (added with STSP), STSP for 18 H, total 18 H, STSP nM: 100,50,25,12.6,6.25,3.13, r28 dThd alone, read-out: Growth inhibition (MTT), dThd for 0 H, dThd 0.76 mM): 27% | inhibition at 1500 µM ([1]; Homo sapiens, U-937, read-out: Growth inhibition (MTT), dThd for 0 H, dThd […], U937, dThd […] for 0 H (added with STSP), STSP for 18 H, total 18 H, STSP nM: 100,50,25,12.6,6.25,3.13, r28 dThd alone, read-out: Growth inhibition (MTT), dThd for 0 H, dThd 1.50 mM): 33% | Enhancement of DEET-induced apoptosis as prospective RA ([1]; MTT tests, about 0.05 to 3 mM, preliminary results): no significant enhancement of the DEET-induced apoptosis | dThd concentration at maximum difference between the plots for O and S ([1]; O/S plots of dThd and STSP, FIG. 15, U937): approximately 0.1 mM | RA concentration for STSP potentiation relative to concentration causing cell cycle arrest ([1]; U937): at least one log lower | Combined results ratio (CRR), dThd for 0 H, dThd 0.02 mM ([1]; U937, dThd 0.02 mM for 0 H (added with STSP), STSP for 18 H, total 18 H, STSP nM: 100,50,25,12.6,6.25,3.13, r27 dThd alone): 1.0 | Combined results ratio (CRR), dThd 0.02 mM ([1]; U937, dThd 0.02 mM for 4 H, STSP for 14 H, total 18 H, STSP nM: 100,50,25,12.5,6.25,3.125, r13 dThd alone): 1.0 | Combined results ratio (CRR), dThd 0.05 mM ([1]; U937, dThd 0.05 mM for 4 H, STSP for 14 H, total 18 H, STSP nM: 100,50,25,12.5,6.25,3.125, r13 dThd alone): 1.0 | Combined results ratio (CRR), dThd for 0 H, dThd 0.06 mM ([1]; U937, dThd 0.06 mM for 0 H (added with STSP), STSP for 18 H, total 18 H, STSP nM: 100,50,25,12.6,6.25,3.13, r27 dThd alone): 1.0 | Combined results ratio (CRR), dThd for 0 H, dThd 0.09 mM ([1]; U937, dThd 0.09 mM for 0 H (added with STSP), STSP for 18 H, total 18 H, STSP nM: 100,50,25,12.6,6.25,3.13, r27 dThd alone): 1.0 | Combined results ratio (CRR), dThd 0.09 mM ([1]; U937, dThd 0.09 mM for 4 H, STSP for 14 H, total 18 H, STSP nM: 100,50,25,12.5,6.25,3.125, r13 dThd alone): 1.0 | Combined results ratio (CRR), dThd for 0 H, dThd 3.00 mM ([1]; U937, dThd 3.00 mM for 0 H (added with STSP), STSP for 18 H, total 18 H, STSP nM: 100,50,25,12.6,6.25,3.13, r27 dThd alone): 1.0 | Combined results ratio (CRR), dThd 3.00 mM ([1]; U937, dThd 3.00 mM for 4 H, STSP for 14 H, total 18 H, STSP nM: 100,50,25,12.5,6.25,3.125, r13 dThd alone): 1.0 | Combined results ratio (CRR), dThd for 0 H, dThd […] ([1]; U937, dThd […] for 0 H (added with STSP), STSP for 18 H, total 18 H, STSP nM: 100,50,25,12.6,6.25,3.13, r27 dThd alone): 1.0 | Combined results ratio (CRR), dThd […] ([1]; U937, dThd […] for 4 H, STSP for 14 H, total 18 H, STSP nM: 100,50,25,12.5,6.25,3.125, r13 dThd alone): 1.0 | combined results ratio, dThd only (baseline line) ([1]; U937, dThd alone, every dThd concentration 3.00-0.01 mM): 1.0 | Effect on cell cycle progression (U937 cells; 0.2 mM dThd): permitted continuous cell transit | Effect on cell cycle progression (U937 cells; 3 mM dThd): arrested cell cycle progression at G1/S

Source: patent publication US6455593B1, “Method of dynamic retardation of cell cycle kinetics to potentiate cell damage” (priority 1995, dated 2002)
